Data: patent US7998978B2 (Pfizer Inc., priority 2006, dated 2011)

These molecules were tested against T1, JNK1α1 (Homo sapiens, UniProt P45983) (assay: Coupled spectrophotometric (PK/LDH) JNK1α1 assay: % inhibition and Ki determination). Conditions: @1 uM; read-out: % Inhibition JNK-1.
T1 construct: catalytic domain containing amino acids 1-364 and N-terminal hexahistidine tag; hexahistidine (His6) (N); made in house; host or cells: E. coli BL21 (DE3)
Assay type: biochemical
Procedure, shortened: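 Initial rates were taken from the absorbance decrease at 340 nm at 30° C. Ki was fitted with a tight-binding model over 11 concentrations (top 100 μM); single-point inhibition was tested at 1 or 10 μM.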

T1 sequence (P45983 1-364): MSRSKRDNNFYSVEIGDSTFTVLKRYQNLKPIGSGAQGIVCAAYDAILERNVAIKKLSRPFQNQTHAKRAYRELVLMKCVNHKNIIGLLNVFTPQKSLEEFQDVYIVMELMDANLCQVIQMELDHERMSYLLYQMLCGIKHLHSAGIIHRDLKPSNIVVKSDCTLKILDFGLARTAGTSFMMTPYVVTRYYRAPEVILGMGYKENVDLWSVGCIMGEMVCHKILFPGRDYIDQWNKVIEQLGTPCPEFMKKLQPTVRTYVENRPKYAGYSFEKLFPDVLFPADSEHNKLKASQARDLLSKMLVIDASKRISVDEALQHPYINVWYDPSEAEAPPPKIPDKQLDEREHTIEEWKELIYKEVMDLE

SMILES | inhibition at 1 µM
O[C@H]1CC[C@H](Nc2ncc3ccc(OC4CCCN(Cc5ccccn5)C4)cc3n2)CC1 (stereo partly drawn) [Example 286, trans-4-[(7-{[1-(pyridin-2-ylmethyl)piperidin-3-yl]oxy}quinazolin-2-yl)amino]cyclohexanol] | 42%
O=C(N[C@H](CO)Cc1ccccc1)c1ccc2cnc(NC3CCC3)nc2c1 [Example 420, N-[(1S)-1-benzyl-2-hydroxyethyl]-2-(cyclobutylamino)quinazoline-7-carboxamide] | 21%
O=C(N[C@H](CO)c1ccccc1)c1cccc2cnc(N[C@H]3CC[C@H](O)CC3)nc12 [Example 470, 2-[(trans-4-hydroxycyclohexyl)amino]-N-[(1S)-2-hydroxy-1-phenylethyl]quinazoline-8-carboxamide] | 27%
CO[C@H]1CCCC[C@@H]1Oc1ccc2cnc(N[C@H]3CC[C@H](O)CC3)nc2c1 [Example 291, trans-4-[(7-{[(1S,2S)-2-methoxycyclohexyl]oxy}quinazolin-2-yl)amino]cyclohexanol] | 37%
CN1CCC(Oc2cccc3cnc(N[C@H]4CC[C@H](O)CC4)nc23)CC1 [Example 254, trans-4-({8-[(1-methylpiperidin-4-yl)oxy]quinazolin-2-yl}amino)cyclohexanol] | 17%
O=C(NCCO)c1ccc2cnc(NC3CCCCC3)nc2c1 [Example 426, 2-(cyclohexylamino)-N-(2-hydroxyethyl)quinazoline-7-carboxamide] | 23%
Cc1cc(NC(=O)c2cccc3cnc(N[C@H]4CC[C@H](O)CC4)nc23)n(-c2ccccn2)n1 [Example 325, 2-[(trans-4-hydroxycyclohexyl)amino]-N-(3-methyl-1-pyridin-2-yl-1H-pyrazol-5-yl)quinazoline-8-carboxamide] | 9%
O=C1NCCN1CCOc1cccc2cnc(N[C@H]3CC[C@H](O)CC3)nc12 [Example 260, 1-[2-({2-[(trans-4-hydroxycyclohexyl)amino]quinazolin-8-yl}oxy)ethyl]imidazolidin-2-one] | 34%

Same assay, conditions: @10 uM; read-out: % Inhibition JNK-1

SMILES | inhibition at 10 µM
O=C(NCc1nnc(C2CC2)[nH]1)c1cccc2cnc(N[C@H]3CC[C@H](O)CC3)nc12 [Example 490, N-[(5-cyclopropyl-4H-1,2,4-triazol-3-yl)methyl]-2-[(trans-4-hydroxycyclohexyl)amino]quinazoline-8-carboxamide] | 40%
O=C(NCCN1CCCCC1=O)c1cccc2cnc(N[C@H]3CC[C@H](O)CC3)nc12 [Example 486, 2-[(trans-4-hydroxycyclohexyl)amino]-N-[2-(2-oxopiperidin-1-yl)ethyl]quinazoline-8-carboxamide] | 50%

Same assay, conditions: JNK-1

SMILES | Ki
O=C(CCc1ccc(F)cc1)Nc1cc2cc(-c3cn[nH]c3)ccc2cn1 [Example 44, 3-(4-fluorophenyl)-N-[6-(1H-pyrazol-4-yl)isoquinolin-3-yl]propanamide] | 11 nM
CC[C@H](CO)NC(=O)c1cccc2cnc(N[C@H]3CC[C@H](O)CC3)nc12 [Example 458, 2-[(trans-4-hydroxycyclohexyl)amino]-N-[(1R)-1-(hydroxymethyl)propyl]quinazoline-8-carboxamide] | 374 nM
O[C@H]1CC[C@H](Nc2ncc3cccc(-c4ccccc4)c3n2)CC1 [Example 205, trans-4-[(8-phenylquinazolin-2-yl)amino] cyclohexanol] | 29 nM
O=C(NC1CCS(=O)(=O)C1)c1ccc2cnc(N[C@H]3CC[C@H](O)CC3)nc2c1 (stereo partly drawn) [Example 344, N-(1,1-dioxidotetrahydro-3-thienyl)-2-[(trans-4-hydroxycyclohexyl)amino]quinazoline-7-7-carboxamide] | 869 nM
O=C(NCC1CCCO1)c1ccc2cnc(N[C@H]3CC[C@H](O)CC3)nc2c1 (stereo partly drawn) [Example 340, 2-[(trans-4-hydroxycyclohexyl)amino]-N-(tetrahydrofuran-2-ylmethyl)quinazoline-7-carboxamide] | 836 nM
CN(C)CCNC(=O)c1cccc2cnc(N[C@H]3CC[C@H](O)CC3)nc12 [Example 127, N-[2-(dimethylamino)ethyl]-2-[(trans-4-hydroxycyclohexyl)amino]quinazoline-8-carboxamide] | 3490 nM
O=C(Nc1ccccn1)c1cccc2cnc(N[C@H]3CC[C@H](O)CC3)nc12 [Example 110, 2-[(trans-4-hydroxycyclohexyl)amino]-N-pyridin-2-ylquinazoline-8-carboxamide] | 86 nM
O=C(N[C@H](CO)c1ccccc1)c1ccc2cnc(NC3CCC3)nc2c1 [Example 392, 2-(cyclobutylamino)-N-[(1S)-2-hydroxy-1-phenylethyl]quinazoline-7-carboxamide] | 385 nM
c1ccc(-c2nc(CNc3cc4cc(-c5cn[nH]c5)ccc4cn3)c[nH]2)cc1 [Example 225, N-[(2-phenyl-1H-imidazol-4-yl)methyl]-6-(1H-pyrazol-4-yl)isoquinolin-3-amine] | 5160 nM
c1ccc2nc(CNc3cc4cc(-c5cn[nH]c5)ccc4cn3)cnc2c1 [Example 222, 6-(1H-pyrazol-4-yl)-N-(quinoxalin-2-ylmethyl)isoquinolin-3-amine] | 2950 nM
CC(C)N[C@H]1CC[C@H](Nc2ncc3cccc(OC4CCOCC4)c3n2)CC1 [Example 191, trans-N-isopropyl-N′-[8-(tetrahydro-2H-pyran-4-yloxy)quinazolin-2-yl]cyclohexane-1,4-diamine] | 698 nM
CC(C)(O)CNC(=O)c1cccc2cnc(N[C@H]3CC[C@H](O)CC3)nc12 [Example 121, 2-[(trans-4-hydroxycyclohexyl)amino]-N-(2-hydroxy-2-methylpropyl)quinazoline-8-carboxamide] | 169 nM
O=C(NCCC1CCCCO1)c1ccc2cnc(N[C@H]3CC[C@H](O)CC3)nc2c1 (stereo partly drawn) [Example 343, 2-[(trans-4-hydroxycyclohexyl)amino]-N-[2-(tetrahydro-2H-pyran-2-yl)ethyl]quinazoline-7-carboxamide] | 855 nM
O=C(NC(CO)c1ccccc1)c1ccc2cnc(NC3CCC3)nc2c1 (stereo not shown) [Example 383, 2-(cyclobutylamino)-N-(2-hydroxy-1-phenylethyl)quinazoline-7-carboxamide] | 200 nM
O[C@H]1CC[C@H](Nc2ncc3ccc(OCCN4CCOCC4)cc3n2)CC1 [Example 154, trans-4-{[7-(2-morpholin-4-ylethoxy)quinazolin-2-yl]amino}cyclohexanol] | 403 nM
O=C(N[C@@H]1COC[C@H]1O)c1cccc2cnc(N[C@H]3CC[C@H](O)CC3)nc12 (relative stereo) [Example 139, 2-[(trans-4-hydroxycyclohexyl)amino]-N-[(trans)-4-hydroxytetrahydrofuran-3-yl]quinazoline-8-carboxamide] | 16 nM
O=C(NC1CCN(c2cccnn2)CC1)c1cccc2cnc(N[C@H]3CC[C@H](O)CC3)nc12 [Example 449, 2-[(trans-4-hydroxycyclohexyl)amino]-N-(1-pyridazin-3-ylpiperidin-4-yl)quinazoline-8-carboxamide] | 138 nM
O=C(Nc1ccccn1)c1ccc2cnc(N[C@H]3CC[C@H](O)CC3)nc2c1 [Example 330, 2-[(trans-4-hydroxycyclohexyl)amino]-N-pyridin-2-ylquinazoline-7-carboxamide] | 354 nM
O[C@H]1CC[C@H](Nc2ncc3ccccc3n2)CC1 [Example 151, trans-4-(quinazolin-2-ylamino)cyclohexanol] | 432 nM
CN(C)CCOc1ccc(-c2cccc3cnc(N[C@H]4CC[C@H](O)CC4)nc23)cc1 [Example 201, trans-4-[(8-{4-[2-(dimethylamino)ethoxy]phenyl}quinazolin-2-yl)amino]cyclohexanol] | 70 nM
CC(C)C[C@@H](CO)NC(=O)c1ccc2cnc(NC3CCCCC3)nc2c1 [Example 374, 2-(cyclohexylamino)-N-[(1S)-1-(hydroxymethyl)-3-methylbutyl]quinazoline-7-carboxamide] | 102 nM
O=C(CC1CCS(=O)(=O)C1)Nc1cc2cc(-c3cn[nH]c3)ccc2cn1 (stereo not shown) [Example 13, 2-(1,1-dioxidotetrahydro-3-thienyl)-N-[6-(1H-pyrazol-4-yl)isoquinolin-3-yl]acetamide] | 36 nM
CCS(=O)(=O)N[C@H]1CC[C@H](Nc2ncc3cccc(OC4CCOCC4)c3n2)CC1 [Example 183, N-(trans-4-{[8-(tetrahydro-2H-pyran-4-yloxy)quinazolin-2-yl]amino}cyclohexyl)ethanesulfonamide] | 220 nM
COc1cccc2cnc(N[C@H]3CC[C@H](O)CC3)nc12 [Example 150] | 359 nM
O=C(NCCc1ccccc1)c1ccc2cnc(N[C@H]3CC[C@H](O)CC3)nc2c1 [Example 63, 2-[(trans-4-hydroxycyclohexyl)amino]-N-(2-phenylethyl)quinazoline-7-carboxamide] | 460 nM
CC1(CNC(=O)c2ccc3cnc(N[C@H]4CC[C@H](O)CC4)nc3c2)COC1 [Example 335, 2-[(trans-4-hydroxycyclohexyl)amino]-N-[(3-methyloxetan-3-yl)methyl]quinazoline-7-carboxamide] | 483 nM
c1cnc(N2CCC(Nc3cc4cc(-c5cn[nH]c5)ccc4cn3)CC2)nc1 [Example 216, 6-(1H-pyrazol-4-yl)-N-(1-pyrimidin-2-ylpiperidin-4-yl)isoquinolin-3-amine] | 480 nM
O=C(Nc1cc2cc(-c3cn[nH]c3)ccc2cn1)C1COc2ccccc2C1 (stereo not shown) [Example 38, N-[6-(1H-pyrazol-4-yl)isoquinolin-3-yl]chromane-3-carboxamide] | 14 nM
O=C(NC1(c2ccncc2)CC1)c1cccc2cnc(N[C@H]3CC[C@H](O)CC3)nc12 [Example 455, 2-[(trans-4-hydroxycyclohexyl)amino]-N-(1-pyridin-4-ylcyclopropyl)quinazoline-8-carboxamide] | 235 nM
CC(C)c1ccc(OCC(=O)Nc2cc3cc(-c4cn[nH]c4)ccc3cn2)cc1 [Example 50, 2-(4-isopropylphenoxy)-N-[6-(1H-pyrazol-4-yl)isoquinolin-3-yl]acetamide] | 3 nM
